Results: patent publication US10335380B2, “Compounds suitable for the treatment of myeloproliferative neoplasms as well as methods for the diagnosis/prognosis of myeloproliferative neoplasms” (CNIC Fundacion Centro Nacional De investigaciones …, priority 2013, dated 2019)

Legend:
[1] = tested on: CD45+ haematopoietic cells from BM of Nes-gfp;Mx1-cre;JAK2-V617F mice and control littermates; assay: Colony-forming units in culture (CFU-C) with drug added in vitro; assay type: cell-based, mouse; settings: scored after one week in culture
Procedure: Colony-forming units in culture (CFU-C) assay was performed. […] Colonies of more than 50 cells were scored after 7 days of incubation at 37° C., 5% CO2, 20% O2 in a water-jacketed incubator. For CFU-F assays, BM CD45− Ter119− cells were plated into 6-well dishes and cultured in maintenance medium (α-MEM, 15% FCS with antibiotics). After 10-12 days in culture, adherent cells were fixed with 100% methanol and stained with Giemsa stain (Sigma) to reveal fibroblastic clusters. Colonies with more than 50 cells were scored as CFU-F.

[2] = tested on: mice transplanted with MPN BM cells (JAK2-V617F); assay: In vivo pharmacological treatments of mice transplanted with MPN (Mx1-cre;JAK2-V617F) BM cells; set-up: species or system mouse
Description: In Mx1-cre; JAK2-V617F double-transgenic mice, expression of the human JAK2-V617F mutation is driven by the endogenous Jak2 promoter and can be conditionally expressed in haematopoietic cells upon Myxovirus resistance-1 (Mx1)-driven Cre recombinase activation by polyinosine-polycytosine (plpC). PlpC-induced transgenic mice and wild-type mice transplanted with BM cells from these mice develop progressive symptoms of PV19,20.
Age-matched, female wild-type C57BL/6J or Nes-gfp mice were used as recipients in bone marrow (BM) transplantation assays and for in vivo pharmacological treatments. […] Vehicle (saline solution) daily injections were performed in the same way. Unless indicated, treatment was initiated 4 weeks posttransplant, when animals evidenced peripheral blood signs of MPN. Mice were randomly distributed prior to treatment initiation, and disease development was monitored over time in peripheral blood samples, using an automated blood counter. […] The neuroprotective drug 4-methylcatechol (10 μg kg-1, i.p.) was injected once daily. The JAK inhibitor INCB018424 (S-Ruxilitinib, Abmole Bioscience) was administered by oral gavage (30 mg kg-1, twice per day separated 10-12 hours) in 0.5% hydroxypropylmethylcellulose (Sigma) after solubilisation in DMSO. The IL-1 receptor antagonist (Kineret, Sobi, Stockholm, Sweden) was administered by subcutaneous osmotic pumps (Alzet) infusing a continuous dosing of 40 mg kg-1 per day. Mice were sacrificed at different time points and subjected to complete necropsy; BM and spleen were analysed by histology and flow cytometry; femora and skull were used for immunostainings, and haematopoietic and stromal cells were additionally used for functional assays ex vivo.
BM cell extraction, flow cytometry and fluorescence-activated cell sorting For haematopoietic cell recovery, bones were crushed in a mortar, filtered through a 40-μm mesh to obtain single cell suspensions, and depleted of red blood cells by lysis in 0.15 M NH4Cl for 10 min at 4° C. Spleen samples were homogenised and filtered prior to lysis; blood samples were directly lysed. Cells (1-2×10^6 cells per sample) were incubated with the appropriate dilution (2-5 μg ml-1) of fluorescent antibody conjugates and 4′,6-diamidino-2-phenylindole (DAPI) for dead cell exclusion, and analysed on LSRFortessa flow cytometer (BD Biosciences, Franklin Lakes, N.J.) equipped with FACSDiva Software (BD Biosciences). […] Biotinylated antibodies were detected with fluorochrome-conjugated streptavidin (BD Biosciences). Phenotypic populations of HSC were defined as long-term haematopoietic stem cells (HSCs) (lin− Sca1+c-kit+ (LSK) CD34− Flt3−), short-term HSCs (LSK CD34+ Flt3−) and multipotent progenitors (MPP) (LSK CD34+ Flt3+).
Cells were filtered through a 40-μm mesh and erythrocytes were lysed as previously described. The resulting bone marrow-enriched cell suspensions were pelleted, washed and resuspended in PBS buffer containing 2% foetal calf serum (FCS) for further analyses. […] BM stromal CD45− CD31− Ter119− cells were further purified according to GFP fluorescence using a FACS Aria cell sorter (BD Bioscience). For the determination of apoptotic cells, samples were washed with PBS after surface antibody staining and subsequently stained with Annexin V-Pacific Blue and SYTOX AADvanced (Invitrogen, Life Technologies, Paisley, UK). For functional assays, cells were enriched by immunomagnetic depletion using biotinylated CD45 and Ter119. For immunophenotypic characterisation, total BM samples were studied by flow cytometry using the following additional antibodies: CD63 (NVG-2), CD105 (MJ7/18), CD140a (APA5), Vcam, CD51 (RMV-7), all from Biolegend; and CD90.2 from BD Biosciences.
Immunofluorescence staining of cryostat sections was performed. For whole mount staining of the calvaria, all incubation times were extended. The antibodies used were TH (Rabbit pAb, Millipore) and GFAP (Rabbit pAb, Dako).

[3] = cited from earlier work
[4] = target: murine receptor (β3-adrenergic) (Mus musculus, UniProt P25962); settings: cited from earlier work
murine receptor (β3-adrenergic), sequence (P25962 whole entry): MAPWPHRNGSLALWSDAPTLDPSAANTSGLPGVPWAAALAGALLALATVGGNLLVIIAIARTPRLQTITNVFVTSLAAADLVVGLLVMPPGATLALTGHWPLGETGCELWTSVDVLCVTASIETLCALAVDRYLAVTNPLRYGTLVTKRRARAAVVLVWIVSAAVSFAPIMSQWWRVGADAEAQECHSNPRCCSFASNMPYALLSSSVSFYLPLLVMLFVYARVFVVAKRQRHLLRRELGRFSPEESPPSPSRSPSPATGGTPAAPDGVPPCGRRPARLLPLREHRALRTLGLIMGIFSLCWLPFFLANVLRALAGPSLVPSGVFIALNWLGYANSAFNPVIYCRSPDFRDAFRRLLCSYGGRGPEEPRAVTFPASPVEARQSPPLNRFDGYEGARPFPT

BM-derived Schwann cells = assay: Co-culture of BM-derived Schwann cells with JAK2V617F+ BM LSK cells, apoptosis by TUNEL; assay type: cell-based, mouse; settings: IL1ra 200 ng ml-1, 24 h co-culture
Procedure: For co-culture of BM-derived Schwann cells and MSCs with BM LSK cells from control and mutant mice, neonatal BM CD45− CD31− Ter119− Nes-GFP+ Pdgfrα−/+ cells containing Schwann cell precursors and MSCs, respectively (Isern J et al., submitted), were sorted and cultured under Schwann cell differentiation conditions, as previously described 34, or mesenchymal culture conditions, in MEMα supplemented with 10 ng ml-1 PDGFAB, 15% FBS. Both were co-cultured for 24 h with primary BM LSK cells isolated by FACS from control or mutant mice. Schwann cells derived from sorted GFP+ Pdgfrα− BM precursors were additionally incubated with IL1ra (200 ng ml-1) for the co-culture period. After 24 h of co-culture, haematopoietic cells were washed away and the remaining adherent Schwann cells were fixed and analysed for apoptosis by TUNEL.

[5] = IL1ra 40 mg kg-1 per day, subcutaneous osmotic pumps, 18 weeks

Q: What does the source list for `Cc1ccc(O)c(O)c1` [4-methylcatechol]?
A: growth of cultured haematopoietic progenitors (CFU-C) [1]: neither 4-methylcatechol nor BRL37344 affected; incipient MPN signs (haematological parameters) ([2]; 8 weeks after transplantation, treatment for the last 4 weeks): improved; mutant haematopoietic progenitor expansion ([2]; early treatment, 4 weeks, BRL37344 2 mg kg-1 twice a day, 4-methylcatechol 10 μg kg-1 once daily): prevented; BM Schwann cells (Gfap immunostaining) ([2]; symptomatic MPN mice, 4-methylcatechol 10 μg kg-1 i.p. once daily over a month): preserved; MPN-associated neutrophilia ([2]; symptomatic MPN mice, treatment started 4 weeks after transplantation, BRL37344 2 mg kg-1 i.p. twice a day, 4-methylcatechol 10 μg kg-1 i.p. once daily): prevented

Q: Which results are given for `Nc1nc(CC(=O)Nc2ccc(CCNC[C@H](O)c3ccccc3)cc2)cs1` [Mirabegron]?
A: solubility [3]: poor; MPN progression ([2]; BRL37344 or Mirabegron 2 mg kg-1 i.p. twice a day): delays; several MPN markers (blood counts) ([2]; Mirabegron 2 mg kg-1 i.p. twice a day, last two weeks, 8 weeks after transplantation, to lower extent than BRL37344): improved; affinity for the murine receptor [4]: relatively low

Q: With “interleukin-1 receptor antagonist: IL-1 receptor antagonist (Kineret, Sobi, Stockholm, Sweden)” as the molecule, how does the “BM MSC frequency” value [2, 5] read?
A: increased

Q: And the “caspase-1 mRNA expression in haematopoietic progenitors” value [2, 5]?
A: reduced

Q: What about the platelet counts ([2]; IL1ra 40 mg kg-1 per day, subcutaneous osmotic pumps, 18 weeks, starting 2 weeks after transplant) of the same molecule?
A: reduced

Q: What about the “3-fold higher apoptotic rate of Schwann cells co-cultured with JAK2V617F+ haematopoietic progenitors” value (BM-derived Schwann cells) of the same molecule?
A: blocked
